Experimental data from patent US4088752A, “Oral composition for plaque and caries inhibition” (Gaba AG, priority 1974, dated 1978).

How the values were obtained:
Format in all cases: in vivo, Osbourne-Mendel rats
[1] = system: Streptococcus mutans OMZ 176; assay: Rat caries experiment: smooth surface plaque, smooth surface caries and fissure caries after local application of aqueous test solutions; details: for Average number per rat of smooth surface plaque extent (PU) / Average number per rat of advanced dentinal fissure lesions (B) / Average number per rat of smooth surface carious units (E): means of 10 animals; for Average number per rat of smooth surface plaque extent (PU): standard error 0.29; for Average number per rat of advanced dentinal fissure lesions (B): standard error 0.94; for Average number per rat of smooth surface carious units (E): standard error 1.81; for cariostatic effects of sodium fluoride and sodium trimetaphosphate together: smooth surface caries, combination of the two
Experimental: To examine the effect of the compounds used according to the present invention, a series of animal experiments were carried out. In these tests an aqueous solution of the test compounds was applied locally to determine its action in inhibiting plaque and caries.
(§1) On day 13 the animals with their dams were transferred to stainless-steel cages and fed powdered Nafag diet. The animals were weaned when 22 days old and distributed at random among the treatments.
(§2) 0.1 ml of the test solutions were applied once daily during the whole 20-day experimental period in which diet 2000a and tap water were available ad libitum. On day 22 the animals were superinfected twice with Streptococcus mutans OMZ 176. Caries, molar surface dissolution rate and fluoride content were assessed acccording to routine procedures.

[2] = Weight gain of rats during the 20-day experimental period; details: means of 10 animals, standard error 3.4
Experimental: (§3) Groups of 10 Osbourne-Mendel rats, which are particularly suitable for caries-inhibition studies, were subjected to the following treatments:
as §1, §2

[3] = Postmortal rat molar solubility (molar surface dissolution rate); details: per mand: m1 + m2 in 10 ml 0.025 M acetate buffer pH 4, 60 min., 37° C; standard error 5.7
Experimental: as §2

[4] = Fluoride content of maxillary molar surfaces; details: maxillary molars m1 + m2, 15 sec. in 2N hydrochloric acid under agitation; for Fluoride concentration, cumulated layers: first and second cumulated layers, standard error 12.4; for Fluoride concentration, second layer: standard error 10.4; for Fluoride concentration, first layer: standard error 16.6
Experimental: as §3, §2
Fluoride concentrations in the first, the second and the
first and second cumulated layers (ppm F) in the maxillary
molars (m1 + m2, 15 sec. in 2N hydrochloric acid under

[5] = rats, 20-day experimental period

| Compound | Average number per rat of smooth surface plaque extent (PU) ([1]; 20-day experimental period) | Average number per rat of advanced dentinal fissure lesions (B) ([1]; 20-day experimental period) | Average number per rat of smooth surface carious units (E) ([1]; 20-day experimental period) | Smooth surface caries (statement) [1, 5] | cariostatic effects of sodium fluoride and sodium trimetaphosphate together [1] | weight gains [2] [g] | Postmortal rat molar solubility [3] [μgP] | Fluoride concentration, cumulated layers [4] [ppm F] | Fluoride concentration, second layer [4] [ppm F] | Fluoride concentration, first layer [4] [ppm F] | also measured |
| --- | --- | --- | --- | --- | --- | --- | --- | --- | --- | --- | --- |
| O=P1([O-])OP(=O)([O-])OP(=O)([O-])O1.[Na+].[Na+].[Na+] [Treatment 4, sodium trimetaphosphate] | 2.7 | 6.1 | 10.1 | effective | additive | 60 |  |  |  |  |  |
| N,N,N'-tris-(2-hydroxyethyl)-N'-octadecyl-1,3-diaminopropanediorthophosphate [Treatment 8] |  |  |  |  |  |  | 121 |  |  |  |  |
| N,N,N'-tris-(2-hydroxyethyl)-N'-octadecyl-1,3-diaminopropanemonohydrofluoride monoorthophosphate [Treatment 9] |  |  |  |  |  |  | 130 | 74 | 53 | 92 |  |
| N,N,N'-tris-(7-hydroxyethyl)-N'-octadecyl-1,3-diaminopropanepyrophosphate [Example 7] |  |  |  |  |  |  |  | 143 | 94 | 187 |  |
| N-(2-hydroxyethyl)-2-heptadecen-9-yl-imidazoline orthophosphate [Example 6] |  |  |  |  |  |  |  |  |  |  | Smooth surface plaque, average extent (statement) [1, 5]: significantly lower (PF <0.001) |
| sodium fluoride [Treatment 3] | 2.5 | 9.8 | 9.0 | effective | additive | 65 |  |  |  |  |  |
